Assay: xn = mol fraction of the nth substance listed
Details: 298.15 K, 101 kPa

SMILES: O + C[NH+](C)C.O=S(=O)([O-])O
- speed of sound (x1 = 1): 1496 m/s
- viscosity (x1 = 1): 0.89 mPa·s

SMILES: O + CC[NH+](CC)CC.O=S(=O)([O-])O
- speed of sound (x1 = 1): 1496 m/s
- viscosity (x1 = 1): 0.89 mPa·s

SMILES: C[NH+](C)C.O=S(=O)([O-])O + O
- speed of sound (x2 = 0): 1564 m/s
- viscosity (x2 = 0): 5.1 mPa·s
- speed of sound (x2 = 0.1369): 1553 m/s
- viscosity (x2 = 0.1369): 4.86 mPa·s
- speed of sound (x2 = 0.1942): 1555 m/s
- viscosity (x2 = 0.1942): 4.74 mPa·s
- speed of sound (x2 = 0.2919): 1558 m/s
- viscosity (x2 = 0.2919): 4.53 mPa·s
- speed of sound (x2 = 0.3723): 1562 m/s
- viscosity (x2 = 0.3723): 4.34 mPa·s
- speed of sound (x2 = 0.4691): 1565 m/s
- viscosity (x2 = 0.4691): 4.05 mPa·s
- speed of sound (x2 = 0.5219): 1564 m/s
- viscosity (x2 = 0.5219): 3.88 mPa·s
- speed of sound (x2 = 0.6073): 1556 m/s
- viscosity (x2 = 0.6073): 3.54 mPa·s
- speed of sound (x2 = 0.6734): 1541 m/s
- viscosity (x2 = 0.6734): 3.22 mPa·s
- speed of sound (x2 = 0.7012): 1531 m/s
- viscosity (x2 = 0.7012): 3.08 mPa·s
- speed of sound (x2 = 0.7878): 1502 m/s
- viscosity (x2 = 0.7878): 2.58 mPa·s
- speed of sound (x2 = 0.8724): 1472 m/s
- viscosity (x2 = 0.8724): 2.01 mPa·s
- speed of sound (x2 = 0.9027): 1470 m/s
- viscosity (x2 = 0.9027): 1.76 mPa·s
- speed of sound (x2 = 0.9352): 1466 m/s
- viscosity (x2 = 0.9352): 1.49 mPa·s

SMILES: CC[NH2+]CC.O=S(=O)([O-])O + O
- speed of sound (x2 = 0.1212): 1426 m/s
- viscosity (x2 = 0.1212): 30.4 mPa·s
- speed of sound (x2 = 0.2183): 1429 m/s
- viscosity (x2 = 0.2183): 29.6 mPa·s
- speed of sound (x2 = 0.2979): 1433 m/s
- viscosity (x2 = 0.2979): 30.1 mPa·s
- speed of sound (x2 = 0.3644): 1436 m/s
- viscosity (x2 = 0.3644): 31 mPa·s
- speed of sound (x2 = 0.4207): 1437 m/s
- viscosity (x2 = 0.4207): 31.3 mPa·s
- speed of sound (x2 = 0.5476): 1443 m/s
- viscosity (x2 = 0.5476): 32.3 mPa·s
- speed of sound (x2 = 0.6578): 1441 m/s
- viscosity (x2 = 0.6578): 31.4 mPa·s
- speed of sound (x2 = 0.6979): 1440 m/s
- viscosity (x2 = 0.6979): 30.2 mPa·s
- speed of sound (x2 = 0.7314): 1439 m/s
- viscosity (x2 = 0.7314): 28.8 mPa·s
- speed of sound (x2 = 0.7841): 1437 m/s
- viscosity (x2 = 0.7841): 26 mPa·s
- speed of sound (x2 = 0.8051): 1438 m/s
- viscosity (x2 = 0.8051): 24.6 mPa·s
- speed of sound (x2 = 0.8673): 1439 m/s
- viscosity (x2 = 0.8673): 19.3 mPa·s
- speed of sound (x2 = 0.9079): 1444 m/s
- viscosity (x2 = 0.9079): 15.14 mPa·s
- speed of sound (x2 = 0.9233): 1448 m/s
- viscosity (x2 = 0.9233): 13.51 mPa·s
- speed of sound (x2 = 0.9424): 1454 m/s
- viscosity (x2 = 0.9424): 11.06 mPa·s
- speed of sound (x2 = 0.9622): 1461 m/s
- viscosity (x2 = 0.9622): 8.48 mPa·s
- speed of sound (x2 = 0.9741): 1468 m/s
- viscosity (x2 = 0.9741): 6.19 mPa·s

SMILES: CC(=O)[O-].C[NH+](C)C + O
- speed of sound (x1 = 0.0451): 1499 m/s
- viscosity (x1 = 0.0451): 1.199 mPa·s
- speed of sound (x1 = 0.0651): 1503 m/s
- viscosity (x1 = 0.0651): 1.31 mPa·s
- speed of sound (x1 = 0.0978): 1504 m/s
- viscosity (x1 = 0.0978): 1.5 mPa·s
- speed of sound (x1 = 0.1283): 1507 m/s
- viscosity (x1 = 0.1283): 1.64 mPa·s
- speed of sound (x1 = 0.1524): 1510 m/s
- viscosity (x1 = 0.1524): 1.75 mPa·s
- speed of sound (x1 = 0.2133): 1517 m/s
- viscosity (x1 = 0.2133): 1.99 mPa·s
- speed of sound (x1 = 0.3002): 1525 m/s
- viscosity (x1 = 0.3002): 2.24 mPa·s
- speed of sound (x1 = 0.328): 1527 m/s
- viscosity (x1 = 0.328): 2.31 mPa·s
- speed of sound (x1 = 0.3943): 1532 m/s
- viscosity (x1 = 0.3943): 2.43 mPa·s
- speed of sound (x1 = 0.4341): 1534 m/s
- viscosity (x1 = 0.4341): 2.48 mPa·s
- speed of sound (x1 = 0.4797): 1535 m/s
- viscosity (x1 = 0.4797): 2.52 mPa·s
- speed of sound (x1 = 0.5325): 1537 m/s
- viscosity (x1 = 0.5325): 2.56 mPa·s
- speed of sound (x1 = 0.6292): 1538 m/s
- viscosity (x1 = 0.6292): 2.61 mPa·s
- speed of sound (x1 = 0.7094): 1539 m/s
- viscosity (x1 = 0.7094): 2.62 mPa·s
- speed of sound (x1 = 0.7556): 1540 m/s
- viscosity (x1 = 0.7556): 2.63 mPa·s
- speed of sound (x1 = 0.9278): 1542 m/s
- viscosity (x1 = 0.9278): 2.69 mPa·s
- speed of sound (x1 = 1): 1544 m/s
- viscosity (x1 = 1): 2.76 mPa·s

SMILES: O + CC[NH2+]CC.O=S(=O)([O-])O
- speed of sound (x1 = 1): 1496 m/s
- viscosity (x1 = 1): 0.89 mPa·s

SMILES: CC[NH+](CC)CC.O=S(=O)([O-])O + O
- speed of sound (x2 = 0): 1874 m/s
- viscosity (x2 = 0): 235 mPa·s
- speed of sound (x2 = 0.1228): 1828 m/s
- viscosity (x2 = 0.1228): 210 mPa·s
- speed of sound (x2 = 0.2209): 1819 m/s
- viscosity (x2 = 0.2209): 195 mPa·s
- speed of sound (x2 = 0.3679): 1836 m/s
- viscosity (x2 = 0.3679): 176 mPa·s
- speed of sound (x2 = 0.4728): 1844 m/s
- viscosity (x2 = 0.4728): 162 mPa·s
- speed of sound (x2 = 0.5147): 1843 m/s
- viscosity (x2 = 0.5147): 156 mPa·s
- speed of sound (x2 = 0.6613): 1795 m/s
- viscosity (x2 = 0.6613): 129 mPa·s
- speed of sound (x2 = 0.7011): 1772 m/s
- viscosity (x2 = 0.7011): 120 mPa·s
- speed of sound (x2 = 0.7866): 1702 m/s
- viscosity (x2 = 0.7866): 95.2 mPa·s
- speed of sound (x2 = 0.8075): 1677 m/s
- viscosity (x2 = 0.8075): 87.3 mPa·s
- speed of sound (x2 = 0.869): 1616 m/s
- viscosity (x2 = 0.869): 63.1 mPa·s
- speed of sound (x2 = 0.9091): 1581 m/s
- viscosity (x2 = 0.9091): 48.8 mPa·s
- speed of sound (x2 = 0.9432): 1542 m/s
- viscosity (x2 = 0.9432): 29.5 mPa·s
- speed of sound (x2 = 0.9627): 1526 m/s
- viscosity (x2 = 0.9627): 19.9 mPa·s
- speed of sound (x2 = 0.9743): 1507 m/s
- viscosity (x2 = 0.9743): 14.14 mPa·s

SMILES: O + CC(=O)[O-].CC[NH2+]CC
- speed of sound (x1 = 1): 1496 m/s

SMILES: CC(=O)[O-].CC[NH2+]CC + O
- speed of sound (x2 = 0): 1608 m/s
- speed of sound (x2 = 0.0881): 1602 m/s
- speed of sound (x2 = 0.1637): 1599 m/s
- speed of sound (x2 = 0.2293): 1598 m/s
- speed of sound (x2 = 0.2866): 1597 m/s
- speed of sound (x2 = 0.3373): 1596 m/s
- speed of sound (x2 = 0.459): 1594 m/s
- speed of sound (x2 = 0.5741): 1589 m/s
- speed of sound (x2 = 0.6182): 1585 m/s
- speed of sound (x2 = 0.6562): 1581 m/s
- speed of sound (x2 = 0.7179): 1572 m/s
- speed of sound (x2 = 0.7433): 1568 m/s
- speed of sound (x2 = 0.8208): 1551 m/s
- speed of sound (x2 = 0.8735): 1538 m/s
- speed of sound (x2 = 0.8941): 1532 m/s
- speed of sound (x2 = 0.9197): 1524 m/s
- speed of sound (x2 = 0.9468): 1516 m/s
- speed of sound (x2 = 0.9634): 1510 m/s
